Measurements reported in ChEMBL document CHEMBL1201862, “PubChem BioAssay data set” (2004).
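Test compounds were applied to cells in 96-well plates for 48 hours at 5 doses. Abbreviation: GI50, concentration required for 50% inhibition of growth.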 Activity calls are given as the source filed them. Rule as the data show it: active = GI50 up to about 1.1 µM and inactive = higher.

Legend:
Assay in all cases: inhibition of tumour cell growth, NCI panel, 48 h
[1] = test system: CAKI-1
[2] = test system: CCRF-CEM
[3] = test system: COLO 205
[4] = test system: DU-145
[5] = test system: HCT-116
[6] = test system: HOP-62
[7] = test system: HOP-92
[8] = test system: HT-29
[9] = test system: KM12
[10] = test system: MDA-MB-231
[11] = test system: MDA-MB-435
[12] = test system: MDA-N
[13] = test system: Malme-3M
[14] = test system: NCI-H226
[15] = test system: RPMI-8226
[16] = test system: RXF 393
[17] = test system: SF-295
[18] = test system: SK-MEL-2
[19] = test system: SN12C
[20] = test system: T47D

Measured: GI50

C(=C/CCCN1O[C@@H](CCCCCCCCc2cccnc2)[C@H]2CCC[C@H]21)/CCCCCCCCCc1cccnc1
inactive: [1] 13.5 µM | [2] 15.7 µM | [3] 14.9 µM | [4] 32.4 µM | [5] 16 µM | [6] 20.8 µM | [7] 13.2 µM | [8] 21.9 µM | [9] 18.5 µM | [10] 17.9 µM | [11] 16.2 µM | [12] 24.1 µM | [13] 15.4 µM | [14] 16.4 µM | [15] 7.96 µM | [16] 17.1 µM | [17] 20 µM | [18] 22.4 µM | [19] 19.7 µM | [20] 20.7 µM

O=C1c2c(O)cccc2C(C2OC(CO)C(O)C(O)C2O)c2cc(CO)cc(O)c21 (stereo not given)
inactive: [1] > 100 µM | [2] > 100 µM | [3] > 100 µM | [4] > 100 µM | [5] > 100 µM | [6] > 100 µM | [7] > 100 µM | [8] > 100 µM | [9] > 100 µM | [10] > 100 µM | [11] > 100 µM | [12] > 100 µM | [13] > 100 µM | [14] > 100 µM | [15] > 100 µM | [16] > 100 µM | [17] > 100 µM | [18] > 100 µM | [19] > 100 µM | [20] > 100 µM

O=c1[nH]c(=O)n(C2CC(O)C(CS)O2)cc1F (stereo not given)
inactive: [1] > 81.7 µM | [2] 30.5 µM | [3] 52.5 µM | [4] 61.2 µM | [5] 56.6 µM | [6] 37.2 µM | [7] 9.79 µM | [8] 66.1 µM | [9] 99.1 µM | [10] > 80 µM | [11] > 92.7 µM | [12] 86.9 µM | [13] 64.7 µM | [14] > 100 µM | [15] 67 µM | [16] > 100 µM | [17] 47 µM | [18] > 100 µM | [19] 80.5 µM | [20] > 76.2 µM

COc1cc(/N=N/c2cccc(S(N)(=O)=O)c2)c2ccccc2c1N
inactive: [1] 7.06 µM | [2] 8.17 µM | [3] 13 µM | [4] 1.9 µM | [5] 14.7 µM | [6] 7.35 µM | [7] 17.3 µM | [8] 15.2 µM | [9] 12.9 µM | [10] 10.5 µM | [11] 2 µM | [12] 2.41 µM | [13] 1.7 µM | [14] 19.9 µM | [15] 16.3 µM | [16] 15.7 µM | [17] 10.5 µM | [18] 2.26 µM | [19] 8.89 µM | [20] 13.2 µM
